The source of these data is patent US8426345B2, “Method of drug design” (Alchemia Limited, priority 2005, dated 2013).

The experiment deals with T1, Human SST5 somatostatin receptor (Homo sapiens, UniProt P35346).
T1 construct: expressed in transfected cells; host or cells: HEK-293 EBNA cells (membranes)
The experiment in a line: Filter plate radio-ligand binding assay for SST5 receptor ([125I]SST-14 displacement). To be noted: 3P library; for % SST5 radio-ligand binding displaced at conc 0.001: conc 0.001 μM; for % SST5 radio-ligand binding displaced at conc 0.10: conc 0.10 μM; for % SST5 radio-ligand binding displaced at conc 0.5: conc 0.5 μM; for % SST5 radio-ligand binding displaced at conc 1.0: conc 1.0 μM; for % SST5 radio-ligand binding displaced at conc 10: conc 10 μM; for % SST5 radio-ligand binding displaced at conc 0.25: conc 0.25 μM.

T1 sequence (P35346 whole entry): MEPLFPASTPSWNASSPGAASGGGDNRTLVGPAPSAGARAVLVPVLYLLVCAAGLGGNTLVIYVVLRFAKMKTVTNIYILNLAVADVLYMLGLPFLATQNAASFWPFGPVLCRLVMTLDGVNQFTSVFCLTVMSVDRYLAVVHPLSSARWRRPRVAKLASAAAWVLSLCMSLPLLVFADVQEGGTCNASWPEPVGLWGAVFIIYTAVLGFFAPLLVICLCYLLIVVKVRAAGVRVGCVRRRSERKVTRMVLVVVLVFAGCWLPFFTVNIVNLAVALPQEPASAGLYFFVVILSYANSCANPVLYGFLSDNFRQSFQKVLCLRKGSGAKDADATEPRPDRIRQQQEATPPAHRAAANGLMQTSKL

In the case of `COCC1OC(OCc2ccc3ccccc3c2)C(NC(=O)CCN)C(OCc2ccccc2)C1O` (mixture of isomers) [Compound 64], the “% SST5 radio-ligand binding displaced at conc 0.001” value was “− (% SST5 radio-ligand binding displaced at cone (μM) −<40%)”, the “% SST5 radio-ligand binding displaced at conc 0.10” value is “+ (% SST5 radio-ligand binding displaced at cone (μM) 60>+>40%)”, the “% SST5 radio-ligand binding displaced at conc 0.5” value is recorded as “++ (% SST5 radio-ligand binding displaced at conc (μM) >60%)” and the “% SST5 radio-ligand binding displaced at conc 1.0” value is “++ (% SST5 radio-ligand binding displaced at conc (μM) >60%)”. For the same compound, the “% SST5 radio-ligand binding displaced at conc 10” value is given as “++ (% SST5 radio-ligand binding displaced at conc (μM) >60%)”.

Consider `COCC1OC(OCc2ccc3ccccc3c2)C(NC(=O)CCN)C(OCc2ccccc2)C1O` (mixture of isomers) [Compound 65], for which the “% SST5 radio-ligand binding displaced at conc 10” value was “++ (% SST5 radio-ligand binding displaced at conc (μM) >60%)”.

Turning to `COCC1OC(OCc2ccc3ccccc3c2)C(NC(=O)CCN)C(OCc2ccc(Cl)cc2)C1O` (mixture of isomers) [Compound 66], the “% SST5 radio-ligand binding displaced at conc 0.001” value is reported as “− (% SST5 radio-ligand binding displaced at cone (μM) −<40%)”, the “% SST5 radio-ligand binding displaced at conc 0.10” value is listed as “− (% SST5 radio-ligand binding displaced at cone (μM) −<40%)”, the “% SST5 radio-ligand binding displaced at conc 0.5” value is “++ (% SST5 radio-ligand binding displaced at conc (μM) >60%)” and the “% SST5 radio-ligand binding displaced at conc 1.0” value is “++ (% SST5 radio-ligand binding displaced at conc (μM) >60%)”. Further, the “% SST5 radio-ligand binding displaced at conc 10” value is listed as “++ (% SST5 radio-ligand binding displaced at conc (μM) >60%)”.

With `COCC1OC(OCc2ccc3ccccc3c2)C(NC(=O)CCN)C(OCc2ccc(Cl)cc2)C1O` (mixture of isomers) [Compound 67], the “% SST5 radio-ligand binding displaced at conc 10” value was “++ (% SST5 radio-ligand binding displaced at conc (μM) >60%)”.

On to `COCC1OC(OCc2ccc3ccccc3c2)C(NC(=O)CCN)C(OCc2ccc(-c3ccccc3)cc2)C1O` (mixture of isomers) [Compound 68], for which the “% SST5 radio-ligand binding displaced at conc 0.001” value is “− (% SST5 radio-ligand binding displaced at cone (μM) −<40%)”, the “% SST5 radio-ligand binding displaced at conc 0.10” value is “− (% SST5 radio-ligand binding displaced at cone (μM) −<40%)”, the “% SST5 radio-ligand binding displaced at conc 0.25” value is “− (% SST5 radio-ligand binding displaced at cone (μM) −<40%)” and the “% SST5 radio-ligand binding displaced at conc 0.5” value is on record as “++ (% SST5 radio-ligand binding displaced at conc (μM) >60%)”. Moreover, the “% SST5 radio-ligand binding displaced at conc 1.0” value was “++ (% SST5 radio-ligand binding displaced at conc (μM) >60%)” and the “% SST5 radio-ligand binding displaced at conc 10” value is “++ (% SST5 radio-ligand binding displaced at conc (μM) >60%)”.

Consider `COCC1OC(OCc2ccc3ccccc3c2)C(NC(=O)CCN)C(OCc2ccc3ccccc3c2)C1O` (mixture of isomers) [Compound 69], for which the “% SST5 radio-ligand binding displaced at conc 0.001” value is reported as “+ (% SST5 radio-ligand binding displaced at cone (μM) 60>+>40%)”, the “% SST5 radio-ligand binding displaced at conc 0.10” value was “++ (% SST5 radio-ligand binding displaced at conc (μM) >60%)”, the “% SST5 radio-ligand binding displaced at conc 0.5” value was “++ (% SST5 radio-ligand binding displaced at conc (μM) >60%)” and the “% SST5 radio-ligand binding displaced at conc 1.0” value is on record as “++ (% SST5 radio-ligand binding displaced at conc (μM) >60%)”. Besides, the “% SST5 radio-ligand binding displaced at conc 10” value was “++ (% SST5 radio-ligand binding displaced at conc (μM) >60%)”.

Consider `NCCC(=O)NC1C(OCc2ccc3ccccc3c2)OC(COCc2ccc3ccccc3c2)C(O)C1OCc1ccc(Cl)cc1` (mixture of isomers) [Compound 70], for which the “% SST5 radio-ligand binding displaced at conc 0.25” value is given as “− (% SST5 radio-ligand binding displaced at cone (μM) −<40%)” and the “% SST5 radio-ligand binding displaced at conc 1.0” value was “+ (% SST5 radio-ligand binding displaced at cone (μM) 60>+>40%)”.

For the compound `NCCC(=O)NC1C(OCc2ccc3ccccc3c2)OC(COCc2ccccc2)C(O)C1OCc1ccc(Cl)cc1` (mixture of isomers) [Compound 71], the “% SST5 radio-ligand binding displaced at conc 0.25” value was “− (% SST5 radio-ligand binding displaced at cone (μM) −<40%)” and the “% SST5 radio-ligand binding displaced at conc 1.0” value was “++ (% SST5 radio-ligand binding displaced at conc (μM) >60%)”.

`NCCC(=O)NC1C(OCc2ccc3ccccc3c2)OC(COCc2ccc(Cl)cc2)C(O)C1OCc1ccc(Cl)cc1` (mixture of isomers) [Compound 72]: the “% SST5 radio-ligand binding displaced at conc 0.25” value is “− (% SST5 radio-ligand binding displaced at cone (μM) −<40%)” and the “% SST5 radio-ligand binding displaced at conc 1.0” value was “++ (% SST5 radio-ligand binding displaced at conc (μM) >60%)”.

In the case of `NCCC(=O)NC1C(OCc2ccc3ccccc3c2)OC(COCc2ccc3ccccc3c2)C(O)C1OCc1ccc2ccccc2c1` (mixture of isomers) [Compound 73], the “% SST5 radio-ligand binding displaced at conc 0.25” value is listed as “− (% SST5 radio-ligand binding displaced at cone (μM) −<40%)” and the “% SST5 radio-ligand binding displaced at conc 1.0” value is “+ (% SST5 radio-ligand binding displaced at cone (μM) 60>+>40%)”.

Take `NCCC(=O)NC1C(OCc2ccc3ccccc3c2)OC(COCc2ccccc2)C(O)C1OCc1ccc2ccccc2c1` (mixture of isomers) [Compound 74]: the “% SST5 radio-ligand binding displaced at conc 0.25” value was “− (% SST5 radio-ligand binding displaced at cone (μM) −<40%)” and the “% SST5 radio-ligand binding displaced at conc 1.0” value was “++ (% SST5 radio-ligand binding displaced at conc (μM) >60%)”.

In the case of `NCCC(=O)NC1C(OCc2ccc3ccccc3c2)OC(COCc2ccc(Cl)cc2)C(O)C1OCc1ccc2ccccc2c1` (mixture of isomers) [Compound 75], the “% SST5 radio-ligand binding displaced at conc 0.25” value is reported as “− (% SST5 radio-ligand binding displaced at cone (μM) −<40%)” and the “% SST5 radio-ligand binding displaced at conc 1.0” value was “++ (% SST5 radio-ligand binding displaced at conc (μM) >60%)”.

For `NCCC(=O)NC1C(OCc2ccc3ccccc3c2)OC(COCc2ccc3ccccc3c2)C(O)C1OCc1ccccc1` (mixture of isomers) [Compound 76], the “% SST5 radio-ligand binding displaced at conc 0.25” value is reported as “− (% SST5 radio-ligand binding displaced at cone (μM) −<40%)” and the “% SST5 radio-ligand binding displaced at conc 1.0” value is “++ (% SST5 radio-ligand binding displaced at conc (μM) >60%)”.

With `NCCC(=O)NC1C(OCc2ccc3ccccc3c2)OC(COCc2ccccc2)C(O)C1OCc1ccccc1` (mixture of isomers) [Compound 77], the “% SST5 radio-ligand binding displaced at conc 0.25” value is listed as “− (% SST5 radio-ligand binding displaced at cone (μM) −<40%)” and the “% SST5 radio-ligand binding displaced at conc 1.0” value is recorded as “++ (% SST5 radio-ligand binding displaced at conc (μM) >60%)”.

For the compound `NCCC(=O)NC1C(OCc2ccc3ccccc3c2)OC(COCc2ccc(Cl)cc2)C(O)C1OCc1ccccc1` (mixture of isomers) [Compound 78], the “% SST5 radio-ligand binding displaced at conc 0.25” value is given as “+ (% SST5 radio-ligand binding displaced at cone (μM) 60>+>40%)” and the “% SST5 radio-ligand binding displaced at conc 1.0” value is on record as “++ (% SST5 radio-ligand binding displaced at conc (μM) >60%)”.

In the case of `COC1C(O)C(COCc2ccccc2)OC(OCc2ccc3ccccc3c2)C1NC(=O)CCN` (mixture of isomers) [Compound 93], the “% SST5 radio-ligand binding displaced at conc 0.25” value is “− (% SST5 radio-ligand binding displaced at cone (μM) −<40%)” and the “% SST5 radio-ligand binding displaced at conc 1.0” value is “+ (% SST5 radio-ligand binding displaced at cone (μM) 60>+>40%)”.

Regarding `COC1C(O)C(COCc2ccc3ccccc3c2)OC(OCc2ccc3ccccc3c2)C1NC(=O)CCN` (mixture of isomers) [Compound 97], the “% SST5 radio-ligand binding displaced at conc 0.25” value is on record as “− (% SST5 radio-ligand binding displaced at cone (μM) −<40%)” and the “% SST5 radio-ligand binding displaced at conc 1.0” value is on record as “+ (% SST5 radio-ligand binding displaced at cone (μM) 60>+>40%)”.

For `COCC1OC(OCc2ccc3ccccc3c2)C(NC(=O)CCCN)C(OCc2ccccc2)C1O` (mixture of isomers) [Compound 120], the “% SST5 radio-ligand binding displaced at conc 0.5” value was “+ (% SST5 radio-ligand binding displaced at cone (μM) 60>+>40%)” and the “% SST5 radio-ligand binding displaced at conc 10” value is reported as “++ (% SST5 radio-ligand binding displaced at conc (μM) >60%)”.

Consider `COC1C(O)C(COCc2ccc(-c3ccccc3)cc2)OC(OCc2ccc3ccccc3c2)C1NC(=O)CCCN` (mixture of isomers) [Compound 121], for which the “% SST5 radio-ligand binding displaced at conc 0.5” value is given as “+ (% SST5 radio-ligand binding displaced at cone (μM) 60>+>40%)” and the “% SST5 radio-ligand binding displaced at conc 10” value was “+ (% SST5 radio-ligand binding displaced at cone (μM) 60>+>40%)”.

Turning to `COC1C(O)C(COCc2ccc3ccccc3c2)OC(OCc2ccc3ccccc3c2)C1NC(=O)CCCN` (mixture of isomers) [Compound 122], the “% SST5 radio-ligand binding displaced at conc 0.5” value is “++ (% SST5 radio-ligand binding displaced at conc (μM) >60%)” and the “% SST5 radio-ligand binding displaced at conc 10” value is “++ (% SST5 radio-ligand binding displaced at conc (μM) >60%)”.

With `COC1C(O)C(COCc2ccccc2)OC(OCc2ccc3ccccc3c2)C1NC(=O)CCCN` (mixture of isomers) [Compound 123], the “% SST5 radio-ligand binding displaced at conc 0.5” value is given as “− (% SST5 radio-ligand binding displaced at cone (μM) −<40%)” and the “% SST5 radio-ligand binding displaced at conc 10” value is given as “− (% SST5 radio-ligand binding displaced at cone (μM) −<40%)”.

`COC1C(O)C(COCc2ccc(Cl)cc2)OC(OCc2ccc3ccccc3c2)C1NC(=O)CCCN` (mixture of isomers) [Compound 124]: the “% SST5 radio-ligand binding displaced at conc 0.5” value is listed as “− (% SST5 radio-ligand binding displaced at cone (μM) −<40%)” and the “% SST5 radio-ligand binding displaced at conc 10” value was “+ (% SST5 radio-ligand binding displaced at cone (μM) 60>+>40%)”.

Take `COC1C(O)C(COCc2cccc(O)c2)OC(OCc2ccc3ccccc3c2)C1NC(=O)CCCN` (mixture of isomers) [Compound 125]: the “% SST5 radio-ligand binding displaced at conc 0.5” value was “− (% SST5 radio-ligand binding displaced at cone (μM) −<40%)” and the “% SST5 radio-ligand binding displaced at conc 10” value was “+ (% SST5 radio-ligand binding displaced at cone (μM) 60>+>40%)”.

Regarding `COCC1OC(OCc2ccc3ccccc3c2)C(NC(=O)CCCN)C(OCc2ccccc2)C1O` (mixture of isomers) [Compound 126], the “% SST5 radio-ligand binding displaced at conc 0.001” value is on record as “− (% SST5 radio-ligand binding displaced at cone (μM) −<40%)”, the “% SST5 radio-ligand binding displaced at conc 0.10” value is given as “− (% SST5 radio-ligand binding displaced at cone (μM) −<40%)”, the “% SST5 radio-ligand binding displaced at conc 0.5” value is listed as “+ (% SST5 radio-ligand binding displaced at cone (μM) 60>+>40%)” and the “% SST5 radio-ligand binding displaced at conc 1.0” value was “+ (% SST5 radio-ligand binding displaced at cone (μM) 60>+>40%)”. For the same compound, the “% SST5 radio-ligand binding displaced at conc 10” value is on record as “++ (% SST5 radio-ligand binding displaced at conc (μM) >60%)”.
